# Reference: patent US5750702A (priority 1996, dated 1998)
# Target: GABAa receptor
# Test: GABAa receptor binding assay (displacement of 3H-RO15-1788 [3H-Flumazenil], rat cortical tissue)
# Conditions: Table 2, 0.5 nM 3H-RO15-1788, 30 min at 4° C., nonspecific binding with diazepam
# Method: The pharmaceutical utility of compounds of this invention are indicated by the following assay for GABAa receptor binding activity.
# Assays are carried out as described in Thomas and Tallman (J. Bio. Chem. 156: 9838-9842 J. Neurosci. 3: 433-440, 1983). Rat cortical tissue is dissected and homogenized in 25 volumes (w/v) of 0.05M Tris HCl buffer (pH 7.4 at 4° C.). The tissue homogenate is centrifuged in the cold (4°) at 20,000×g for 20'. The supernatant is decanted and the pellet is rehomogenized in the same volume of buffer and again centrifuged at 20,000×g. The supernatant is decanted and the pellet is frozen at -20° C. overnight. The pellet is then thawed and rehomogenized in 25 volume (original wt/vol) of buffer and the procedure is carried out twice. The pellet is finally resuspended in 50 volumes (w/vol of 0.05M Tris HCl buffer (pH 7.4 at […]).
# Incubations contain […] of tissue homogenate, […] of radioligand 0.5 nM (^3 H-RO15-1788 [^3 H-Flumazenil] specific activity 80 Ci/mmol), drug or blocker and buffer to a total volume of […]. Incubations are carried for 30 min at 4° C. then are rapidly filtered through GFB filters to separate free and bound ligand. Filters are washed twice with fresh 0.05M Tris HCl buffer (pH 7.4 at 4° C.) and counted in a liquid scintillation counter. 1.0 mM diazepam is added to some tubes to determine nonspecific binding. Data are collected in triplicate determinations, averaged and % inhibition of total specific binding is calculated. Total Specific Binding=Total-Nonspecific. In some cases, the amounts of unlabeled drugs is varied and total displacement curves of binding are carried out. Data are converted to Ki values.
row,SMILES,Ki
1,"COc1ccc(NC(=O)c2c[nH]c3c2C(=O)CCC3)cc1 [Compound 1, N-(4-methoxyphenyl)-4-oxo-4,5,6,7-tetrahydro-1H-indole-3-carboxamide]",4 nM
2,"COc1ccc(NC(=O)c2c[nH]c3cccc(O)c23)c(F)c1 [Compound 2, N-(2-fluoro-4-methoxyphenyl)-4-hydroxy-1H-indole-3-carboxamide]",430 nM
3,"COc1ccc(NC(=O)c2c[nH]c3c2C(=O)CCC3)c(F)c1 [Compound 6, N-(2-Fluoro-4-methoxyphenyl)-4-oxo-4,5,6,7-tetrahydro-1H-indole-3-carboxamide]",1 nM
4,"COc1ccc(NC(=O)c2c[nH]c3cccc(OC)c23)cc1 [Compound 8, N-(4-Methoxyphenyl)-4-methoxy-1H-indole-3-carboxamide]",25 nM
5,"CC(=O)Nc1ccc(NC(=O)c2c[nH]c3c2C(=O)CCC3)cc1 [Compound 12, N-(4-Acetamidophenyl)-4-oxo-4,5,6,7-tetrahydro-1H-indole-3-carboxamide]",28 nM
6,"COc1ccc(NC(=O)c2c[nH]c3cccc(OCc4ccccc4)c23)c(F)c1 [Compound 14, N-(2-Fluoro-4-methoxyphenyl)-4-benzyloxy-1H-indole-3-carboxamide]",133 nM

# Same assay, conditions: Table 3, 0.5 nM 3H-RO15-1788, 30 min at 4° C., nonspecific binding with diazepam
row,SMILES,Ki
1,"CC(C)Oc1ccc(NC(=O)c2c[nH]c3c2C(=O)CCC3)cc1 [Compound 22, N-(4-Isopropoxyphenyl)-4-oxo-4,5,6,7-tetrahydro-1H-indole-3-carboxamide]",53 nM
2,"COc1ccc(NC(=O)c2c[nH]c3c2C(=O)CCC3)cc1F [Compound 26, N-(3-Fluoro-4-methoxyphenyl)-4-oxo-4,5,6,7-tetrahydro-1H-indole-3-carboxamide]",3 nM
3,"COc1ccc(NC(=O)c2c[nH]c3c2C(=O)C(C)(C)CC3)c(F)c1 [Compound 30, N-(2-Fluoro-4-methoxyphenyl)-4-oxo-5,5-dimethyl-4,5,6,7-tetrahydro-1H-indole-3-carboxamide]",10 nM
4,"O=C(Nc1ccccc1)c1c[nH]c2c1C(=O)CCC2 [Compound 35, N-Phenyl-4-oxo-4,5,6,7-tetrahydro-1H-indole-3-carboxamide]",2 nM
5,"O=C(Nc1ccccc1F)c1c[nH]c2c1C(=O)CCC2 [Compound 46, N-(2-Fluorophenyl)-4-oxo-4,5,6,7-tetrahydro-1H-indole-3-carboxamide]",3 nM
6,"O=C(Nc1ccccc1O)c1c[nH]c2c1C(=O)CCC2 [Compound 62, N-(2-Hydroxyphenyl)-4-oxo-4,5,6,7-tetrahydro-1H-indole-3-carboxamide]",0.8 nM
7,"Cc1ccc(NC(=O)c2c[nH]c3c2C(=O)CCC3)c(F)c1 [Compound 72, N-(2-Fluoro-4-methylphenyl)-4-oxo-4,5,6,7-tetrahydro-1H-indole-3-carboxamide]",26 nM
8,"CNc1ccc(NC(=O)c2c[nH]c3c2C(=O)CCC3)cc1 [Compound 74, N-[4-(Methylamino)phenyl]-4-oxo-4,5,6,7-tetrahydro-1H-indole-3-carboxamide]",18 nM
9,"CC1(C)CCc2[nH]cc(C(=O)Nc3ccccc3)c2C1=O [Compound 80, N-Phenyl-4-oxo-5,5-dimethyl-4,5,6,7-tetrahydro-1H-indole-3-carboxamide]",31 nM
10,"CC1(C)CCc2[nH]cc(C(=O)Nc3ccccc3F)c2C1=O [Compound 81, N-(2-Fluorophenyl)-4-oxo-5,5-dimethyl-4,5,6,7-tetrahydro-1H-indole-3-carboxamide]",14 nM
11,"CC1(C)CCc2[nH]cc(C(=O)Nc3ccc(O)cc3)c2C1=O [Compound 86, N-(4-Hydroxyphenyl)-4-oxo-5,5-dimethyl-4,5,6,7-tetrahydro-1H-indole-3-carboxamide]",2 nM
12,"O=C(Nc1ccccc1F)c1c[nH]c2c1C(=O)CCCC2 [Compound 93, N-(2-Fluorophenyl)-4-oxo-1,4,5,6,7,8-hexahydro-cyclohepta[b]pyrrole-3-carboxamide]",6 nM
13,"COc1cccc(NC(=O)c2c[nH]c3c2C(=O)CCCC3)c1 [Compound 96, N-(3-Methoxyphenyl)-4-oxo-1,4,5,6,7,8-hexahydro-cyclohepta[b]pyrrole-3-carboxamide]",29 nM
14,"CCOc1ccc(NC(=O)c2c[nH]c3c2C(=O)CCCC3)c(F)c1 [Compound 102, N-(2-Fluoro-4-ethoxyphenyl)-4-oxo-1,4,5,6,7,8-hexahydro-cyclohepta[b]pyrrole-3-carboxamide]",37 nM
